Values joined by “and” are separate entries in the source; they are usually repeats but may differ in a detail not shown here. Equal entries are not always repeated.
Tests used:
Assay type in all cases: functional
Staphylococcus aureus [1] = assay: Antibacterial activity against methicillin resistant Staphylococcus aureus ATCC BAA 1556 assessed as inhibition of bacterial growth incubated for 24 hrs by CLSI based broth microdilution method
Staphylococcus aureus [2] = assay: Antibacterial activity against Staphylococcus aureus ATCC 29213 assessed as inhibition of bacterial growth incubated for 24 hrs by CLSI based broth microdilution method
Escherichia coli = assay: Antibacterial activity against Escherichia coli ATCC 25922 assessed as inhibition of bacterial growth incubated for 24 hrs by CLSI based broth microdilution method
Pseudomonas aeruginosa = assay: Antibacterial activity against Pseudomonas aeruginosa […] assessed as inhibition of bacterial growth incubated for 24 hrs by CLSI based broth microdilution method
Klebsiella pneumoniae = assay: Antibacterial activity against Klebsiella pneumoniae ATCC BAA 1705 assessed as inhibition of bacterial growth incubated for 24 hrs by CLSI based broth microdilution method

Substance | MIC (Staphylococcus aureus [1]) | MIC (Staphylococcus aureus [2]) | MIC (Escherichia coli) | MIC (Pseudomonas aeruginosa) [µg/mL] | MIC (Klebsiella pneumoniae; read-out: MIC) [µg/mL] | MIC (Klebsiella pneumoniae) [µM]
H-RAWRRWARAW-NH2 | > 100 µg/mL and > 70.7 µM | > 100 µg/mL and > 70.7 µM | > 100 µg/mL and > 70.7 µM | > 100 | > 100 | 
H-RWWRRAWAR-NH2 | > 100 µg/mL and > 74.5 µM | > 100 µg/mL and > 74.5 µM | > 100 µg/mL and > 74.5 µM | > 100 | > 100 | 
H-RAWRRWWRAA-NH2 | > 100 µg/mL and > 70.7 µM | > 100 µg/mL and > 70.7 µM | > 100 µg/mL and > 70.7 µM | > 100 | > 100 | 
H-RRWWRRW-NH2 | 100 µg/mL |  | > 100 µg/mL and > 83.3 µM | > 100 | > 100 | 
H-KWAKKWAKWWKK-NH2 | 100 µg/mL | 100 µg/mL | > 100 µg/mL and > 59.8 µM | > 100 | > 100 | 
H-RWARRAWRAW-NH2 | > 100 µg/mL and > 70.7 µM | > 100 µg/mL and > 70.7 µM | > 100 µg/mL and > 70.7 µM | > 100 | > 100 | 
H-ARRWWRRW-NH2 | 100 µg/mL and > 78.7 µM | 100 µg/mL | > 100 µg/mL and > 78.7 µM | > 100 | > 100 | 
H-WRRWARRW-NH2 | > 100 µg/mL and > 78.7 µM | > 100 µg/mL and > 78.7 µM | > 100 µg/mL and > 78.7 µM | > 100 | > 100 | 
H-WRRWWRR-NH2 | 100 µg/mL | 100 µg/mL | > 100 µg/mL and > 83.3 µM | > 100 | > 100 | 
H-RRWRRWW-NH2 | 100 µg/mL | 100 µg/mL | > 100 µg/mL and > 83.3 µM | > 100 | > 100 | 
H-RAARRWARWWR-NH2 | 100 µg/mL | 100 µg/mL | > 100 µg/mL and > 63.7 µM | > 100 | > 100 | 
H-RWWRAAWRR-NH2 | > 100 µg/mL and > 74.5 µM | > 100 µg/mL and > 74.5 µM | > 100 µg/mL and > 74.5 µM | > 100 | > 100 | 
H-RWARRWARWWRR-NH2 |  |  | > 100 µg/mL and > 54.3 µM | 100 | > 100 | 
H-RAWRAWWRRA-NH2 | > 100 µg/mL and > 70.7 µM | > 100 µg/mL and > 70.7 µM | > 100 µg/mL and > 70.7 µM | > 100 | > 100 | 
H-RWIRRWIRWWR-NH2 |  |  | 100 µg/mL |  | 100 | 56.5
H-RWARRWWRA-NH2 | > 100 µg/mL and > 74.5 µM | > 100 µg/mL and > 74.5 µM | > 100 µg/mL and > 74.5 µM | > 100 | > 100 | 
H-RAWRRWWRA-NH2 | > 100 µg/mL and > 74.5 µM | > 100 µg/mL and > 74.5 µM | > 100 µg/mL and > 74.5 µM | > 100 | > 100 | 
H-RWWRRWAR-NH2 | > 100 µg/mL and > 78.7 µM | > 100 µg/mL and > 78.7 µM | > 100 µg/mL and > 78.7 µM | > 100 | > 100 | 
H-RAWRRAWRAW-NH2 | > 100 µg/mL and > 70.7 µM | > 100 µg/mL and > 70.7 µM | > 100 µg/mL and > 70.7 µM | > 100 | > 100 | 
H-RWWRRAWRA-NH2 | > 100 µg/mL and > 74.5 µM | > 100 µg/mL and > 74.5 µM | > 100 µg/mL and > 74.5 µM | > 100 | > 100 | 
Ac-KWAKKWAKWWKK-NH2 | 100 µg/mL |  | 100 µg/mL | 100 | 100 | 
Ac-RWIRRWIRWWR-NH2 |  |  | 100 µg/mL |  | 100 | 
H-RWARRWARWWR-NH2 | 100 µg/mL |  | 100 µg/mL | 100 | > 100 | 

Source: ChEMBL document CHEMBL5316289, “Structure-Based Rational Design of Small α-Helical Peptides with Broad-Spectrum Activity against Multidrug-Resistant Pathogens” (J Med Chem, 2023)
